Test results reported in patent US20050209157A1, “Short bioactive peptides and methods for their use” (priority 2001, published 2005).
≈ marks a conversion by molar mass, not a printed value. No end group written: not given here.

Tests used:
[1] = tested on: Escherichia coli ATCC 25922; test: Antimicrobial assay I, modified protocol (tryptic soy broth), MBC; conditions: minimum bactericidal concentration, Table 4
[2] = tested on: Pseudomonas aeruginosa ATCC 27853; test: as above; conditions: minimum bactericidal concentration, Table 4
[3] = tested on: Stapholococcus aureus ATCC 25923; test: as above; conditions: minimum bactericidal concentration, Table 4
[4] = tested on: Candida albicans ATCC 10231; test: Antimicrobial assay I, modified protocol (tryptic soy broth), MFC; conditions: minimum fungicidal concentration, Table 4

Row | Compound | MBC E. coli A.25922 [1] | MBC P. aerug A.27853 [2] | MBC S. aur A.25923 [3] | MFC Candida A.10231 [4]
1 | CC(C)C[C@H](NC(=O)[C@H](CCCCN)NC(=O)[C@H](CCCCN)NC(=O)[C@H](C)NC(=O)[C@H](CC(C)C)NC(=O)[C@H](CCCCN)NC(=O)[C@H](C)NC(=O)[C@H](CCCCN)NC(=O)[C@H](CCCCN)NC(=O)[C@H](C)NC(=O)[C@H](CC(C)C)NC(=O)[C@H](CCCCN)NC(=O)[C@H](CCCCN)NC(=O)[C@H](C)NC(=O)[C@@H](N)Cc1ccccc1)C(N)=O [compound 77] | >50 µg/mL | >50 µg/mL | >50 µg/mL | >50 µg/mL
2 | CC[C@H](C)[C@H](NC(=O)[C@H](CCCCN)NC(=O)[C@H](CCCCN)NC(=O)[C@H](Cc1ccccc1)NC(=O)[C@H](CC(C)C)NC(=O)[C@H](CCCCN)NC(=O)[C@H](Cc1c[nH]c2ccccc12)NC(=O)[C@@H](N)CCCCN)C(=O)NCC(=O)N[C@@H](C)C(=O)N[C@H](C(=O)N[C@@H](CC(C)C)C(=O)N[C@@H](CCCCN)C(=O)N[C@H](C(=O)N[C@@H](CC(C)C)C(N)=O)C(C)C)C(C)C [compound 53] | 15 µg/mL (≈ 8.47 µM) | 15 µg/mL (≈ 8.47 µM) | 10 µg/mL (≈ 5.65 µM) | 30 µg/mL (≈ 16.9 µM)
3 | CC(C)C[C@H](NC(=O)[C@H](CCCCN)NC(=O)[C@H](CC(C)C)NC(=O)[C@H](CC(C)C)NC(=O)[C@H](C)NC(=O)[C@@H](N)Cc1ccccc1)C(N)=O [compound 168] | 75 µg/mL (≈ 107 µM) | 100 µg/mL (≈ 142 µM) | >250 µg/mL | 150 µg/mL (≈ 213 µM)
4 | FAKLLAKLAKKFAL-NH2 [compound 120] | INACT | INACT | INACT | INACT
5 | CC(C)C[C@H](NC(=O)[C@H](CC(C)C)NC(=O)[C@H](CCCCN)NC(=O)[C@H](CC(C)C)NC(=O)[C@H](CC(C)C)NC(=O)[C@H](CCCCN)NC(=O)[C@H](CCCCN)NC(=O)[C@H](Cc1ccc(O)cc1)NC(=O)[C@H](CC(C)C)NC(=O)[C@H](CCCCN)NC(=O)[C@H](CC(C)C)NC(=O)[C@H](CC(C)C)NC(=O)[C@H](CC(C)C)NC(=O)[C@H](CCCCN)NC(=O)[C@H](CC(C)C)NC(=O)[C@H](CC(C)C)NC(=O)[C@@H](N)CCCCN)C(=O)O [compound 156] | 100 µg/mL (≈ 48 µM) | >250 µg/mL | >250 µg/mL | >250 µg/mL
6 | FAFGKGIGKVGKKLL-NH2 [compound 133] | INACT | INACT | INACT | INACT
7 | CC(C)C[C@H](NC(=O)[C@H](C)NC(=O)[C@H](CCCCN)NC(=O)[C@H](C)NC(=O)[C@H](CC(C)C)NC(=O)[C@H](CCCCN)NC(=O)[C@H](C)NC(=O)[C@H](CC(C)C)NC(=O)[C@H](CCCCN)NC(=O)[C@H](C)NC(=O)[C@H](CC(C)C)NC(=O)[C@H](CCCCN)NC(=O)[C@H](CCCCN)NC(=O)[C@H](C)NC(=O)[C@H](CC(C)C)NC(=O)[C@@H](N)CCCCN)C(N)=O [compound 159] | 10 µg/mL (≈ 5.86 µM) | 10 µg/mL (≈ 5.86 µM) | >250 µg/mL | 50 µg/mL (≈ 29.3 µM)
8 | CC(C)C[C@H](NC(=O)[C@H](CCCCN)NC(=O)[C@H](CC(C)C)NC(=O)[C@H](Cc1c[nH]c2ccccc12)NC(=O)[C@H](CCCCN)NC(=O)[C@H](CCCCN)NC(=O)[C@H](C)NC(=O)[C@H](Cc1c[nH]c2ccccc12)NC(=O)[C@H](CCCCN)NC(=O)[C@H](CCCCN)NC(=O)[C@H](Cc1c[nH]c2ccccc12)NC(=O)[C@H](CC(C)C)NC(=O)[C@@H](N)CCCCN)C(=O)N[C@@H](Cc1c[nH]c2ccccc12)C(=O)N[C@@H](CCCCN)C(=O)N[C@@H](C)C(=O)O [compound 164] | 25 µg/mL (≈ 11.7 µM) | 25 µg/mL (≈ 11.7 µM) | 25 µg/mL (≈ 11.7 µM) | 25 µg/mL (≈ 11.7 µM)
9 | KWKLAKKALALL-NH2 [compound 142] | INACT | INACT | INACT | INACT
10 | CC(C)C[C@H](NC(=O)[C@H](CC(C)C)NC(=O)[C@H](CCCCN)NC(=O)[C@H](C)NC(=O)[C@H](CC(C)C)NC(=O)[C@H](C)NC(=O)[C@H](CCCCN)NC(=O)[C@H](CCCCN)NC(=O)[C@H](C)NC(=O)[C@H](CC(C)C)NC(=O)[C@H](CCCCN)NC(=O)[C@H](C)NC(=O)[C@@H](N)Cc1ccccc1)C(N)=O [compound 148] | 150 µg/mL (≈ 106 µM) | >250 µg/mL | >250 µg/mL | 100 µg/mL (≈ 70.7 µM)
11 | CC(C)C[C@H](NC(=O)[C@H](C)NC(=O)[C@H](CCCCN)NC(=O)[C@H](CCCCN)NC(=O)[C@H](C)NC(=O)[C@H](CC(C)C)NC(=O)[C@H](CCCCN)NC(=O)[C@H](C)NC(=O)[C@H](CC(C)C)NC(=O)[C@H](CC(C)C)NC(=O)[C@H](CCCCN)NC(=O)[C@H](C)NC(=O)[C@@H](N)Cc1ccc(O)cc1)C(N)=O [compound 155] | >250 µg/mL | >250 µg/mL | >250 µg/mL | >250 µg/mL
12 | CC(C)C[C@H](NC(=O)[C@H](CC(C)C)NC(=O)[C@H](C)NC(=O)[C@H](CCCCN)NC(=O)[C@H](C)NC(=O)[C@H](CC(C)C)NC(=O)[C@H](CCCCN)NC(=O)[C@H](CCCCN)NC(=O)[C@H](C)NC(=O)[C@@H](N)Cc1ccccc1)C(N)=O [compound 58] | >50 µg/mL | >50 µg/mL | >50 µg/mL | >50 µg/mL
13 | FALALKA-NH2 [compound 141] | INACT | INACT | INACT | INACT
14 | CC(C)C[C@H](NC(=O)[C@H](C)NC(=O)[C@H](CC(C)C)NC(=O)[C@H](CCCCN)NC(=O)[C@H](C)NC(=O)[C@H](CC(C)C)NC(=O)[C@H](CCCCN)NC(=O)[C@H](CCCCN)NC(=O)[C@H](C)NC(=O)[C@H](CC(C)C)NC(=O)[C@H](CCCCN)NC(=O)[C@H](CCCCN)NC(=O)[C@H](C)NC(=O)[C@@H](N)Cc1ccccc1)C(N)=O [compound 45] | 30 µg/mL (≈ 19.5 µM) | 40 µg/mL (≈ 25.9 µM) | 80 µg/mL (≈ 51.9 µM) | >50 µg/mL
15 | CC(C)C[C@H](NC(=O)[C@H](CC(C)C)NC(=O)[C@H](CCCCN)NC(=O)[C@H](CCCCN)NC(=O)[C@H](C)NC(=O)[C@H](CC(C)C)NC(=O)[C@H](CC(C)C)NC(=O)[C@H](CCCCN)NC(=O)[C@H](C)NC(=O)[C@@H](N)Cc1ccccc1)C(N)=O [compound 57] | >50 µg/mL | >50 µg/mL | >50 µg/mL | >50 µg/mL
16 | CC(C)C[C@H](NC(=O)[C@H](C)NC(=O)[C@@H](N)Cc1ccccc1)C(=O)N[C@@H](C)C(=O)N[C@@H](CC(C)C)C(=O)N[C@@H](CCCCN)C(=O)N[C@@H](C)C(=O)N[C@@H](CC(C)C)C(=O)N[C@@H](CCCCN)C(=O)N[C@@H](CCCCN)C(N)=O [compound 169] | 200 µg/mL (≈ 182 µM) | >250 µg/mL | >250 µg/mL | 75 µg/mL (≈ 68.1 µM)
17 | FAKIIAKIAKKI-NH2 [compound 143] | INACT | INACT | INACT | INACT
18 | FAKLWAKLAKKL-NH2 [compound 136] | INACT | INACT | INACT | INACT
19 | CC(C)C[C@H](NC(=O)[C@H](CC(C)C)NC(=O)[C@H](CCCCN)NC(=O)[C@H](C)NC(=O)[C@H](CC(C)C)NC(=O)[C@H](C)NC(=O)[C@H](CCCCN)NC(=O)[C@H](CCCCN)NC(=O)[C@H](C)NC(=O)[C@H](CC(C)C)NC(=O)[C@H](CCCCN)NC(=O)[C@H](C)NC(=O)[C@@H](N)CCCCN)C(N)=O [compound 149] | 150 µg/mL (≈ 108 µM) | >250 µg/mL | >250 µg/mL | 100 µg/mL (≈ 71.7 µM)
20 | FAKAIAKIAFGKGIGKVGKKLL-NH2 [compound 134] | INACT | INACT | INACT | INACT
21 | FAFGKGIGKIGKKGL-NH2 [compound 138] | INACT | INACT | INACT | INACT
22 | FAKLF-NH2 [compound 129] | INACT | INACT | INACT | INACT
23 | FAKGVGKVGKKAL-NH2 [compound 137] | INACT | INACT | INACT | INACT
24 | CC(C)C[C@H](NC(=O)[C@H](C)NC(=O)[C@H](CCCCN)NC(=O)[C@H](C)NC(=O)[C@H](CC(C)C)NC(=O)[C@H](CCCCN)NC(=O)[C@H](C)NC(=O)[C@H](CC(C)C)NC(=O)[C@H](CCCCN)NC(=O)[C@H](C)NC(=O)[C@H](CC(C)C)NC(=O)[C@H](CCCCN)NC(=O)[C@H](CCCCN)NC(=O)[C@H](C)NC(=O)[C@H](CC(C)C)NC(=O)[C@@H](N)CCCCN)C(=O)O [compound 160] | >250 µg/mL | >250 µg/mL | >250 µg/mL | >250 µg/mL
25 | CC(C)C[C@H](NC(=O)[C@H](CC(C)C)NC(=O)[C@H](CCCCN)NC(=O)[C@H](CCCCN)NC(=O)[C@H](C)NC(=O)[C@H](C)NC(=O)[C@H](CC(C)C)NC(=O)[C@H](CCCCN)NC(=O)[C@H](CC(C)C)NC(=O)[C@H](CC(C)C)NC(=O)[C@H](CCCCN)NC(=O)[C@H](C)NC(=O)[C@@H](N)Cc1ccccc1)C(N)=O [compound 56] | 50 µg/mL (≈ 34.3 µM) | 10 µg/mL (≈ 6.87 µM) | 55 µg/mL (≈ 37.8 µM) | 30 µg/mL (≈ 20.6 µM)
